Where two headings read alike, the source gives them in different places.
Key:
[1] = Cytotoxicity test by MTT assay; assay type: cell-based, African green monkey (Cercopithecus aethiops); conditions: African green monkey (Cercopithecus aethiops), Vero E6 cells (kidney epithelial cells, ATCC #C1008), read-out: 50% cytotoxic concentration (CC50)
Description: (§1) According to the present disclosure, Vero E6 cells, African green monkey (Cercopithecus aethiops) kidney epithelial cells (ATCC #C1008), were used for the antiviral screening. The cells were grown in Dulbecco's Modified Eagle Medium (DMEM) (Gibco, USA) with 10% fetal bovine serum (FBS) (Gibco, USA). For Vero cells (African green monkey epithelial cells), these cells were cultured in Minimum Essential Medium (MEM) (Gibco, USA) supplemented with 10% FBS and L-glutamine (Gibco, USA). All cultures were grown at 37° C. in 5% CO2 atmosphere and used in the experiments described in the following examples.
(§2) For Cytotoxicity Test by using MTT assay, the Vero E6 cells were cultured in 96-well plates with 10,000 cells per well and kept in an incubator for 24 hours. Then, the cells were incubated with the two active compounds from the B. rotunda extract, Panduratin A and Pinostrobin, in the incubator for 48 hours. When the given time was completed, 100 uL of […] MTT solvent was added and cells were incubated in the incubator for another 3 hours. MTT solvent was removed and 100 uL DMSO was added. Light absorbance was measured at 570 nm by a microplate reader, and 50% cytotoxicity concentration (CC50) was calculated for each replicate.

[2] = test system: SARS-CoV-2; experiment: Antiviral activity test, immunofluorescence high-content imaging, post-infection treatment; assay type: cell-based
[3] = test system: Vero E6 cells; conditions: read-out: CC50, pre-entry phase, pre-entry condition
[4] = test system: Vero E6 cells; experiment: Cytotoxicity test by MTT assay; assay type: cell-based, African green monkey (Cercopithecus aethiops); conditions: 48 h, read-out: 50% cytotoxic concentration (CC50)
Description: as §1, §2

[5] = test system: SARS-CoV-2; experiment: Plaque assay of viral output, pre-entry phase; assay type: cell-based; conditions: 50 μM, FIG. 9
[6] = test system: SARS-CoV-2; experiment: Plaque assay of viral output, post-infection treatment; assay type: cell-based; conditions: FIG. 6
Description: Furthermore, the viral output of SARS-CoV-2 in the present disclosure was reported as the infectious titers that were determined by plaque assay. In brief, Vero cell monolayer was seeded into 6-well plate 24 hours before the infection. The cells were inoculated with a serial dilution of the virus and incubated for viral adsorption for 1 hour at 37° C. Then, the cells were overlaid with 3 mL/well of overlay medium containing MEM supplemented with 5% FBS and 1% agarose. To allow plaque to develop, the culture was incubated at 37° C. in 5% CO2 for 3 days. After that, plaque phenotypes were visualized by staining with 0.33% Neutral Red solution (Sigma, USA) for 5 hrs. Plaque numbers were counted and calculated as plaque-forming unit (PFU) per milliliter (mL).

[7] = test system: SARS-CoV-2; assay type: cell-based
[8] = test system: SARS-CoV-2; experiment: Anti-SARS-CoV-2 effect at the pre-entry phase, high-content imaging; assay type: cell-based; conditions: pre-incubated with virus 1 h, adsorption 2 h on Vero E6, washed, 48 h

Row | Structure (SMILES) | CC50 at 48 h [1] | IC50 ([2]; Severe acute respiratory syndrome coronavirus 2, Vero C1008, read-out: 50% inhibition concentration (IC50), given in ug/mL beside the uM value) | CC50 [3] | CC50 [4] | IC50 ([2]; Vero E6 cells infected 2 h, then treated 48 h (post-infection), read-out: 50% inhibition concentration (IC50)) | Suppression of the infectious virion production [5] | Inhibition of coronavirus replication in plaque assay (result in words) [6] | Virus titer (reduced in) ([7]; 72 h, 5 μM, vehicle 4.5 log PFU/mL) | Reduction of virus titers (result in words) ([7]; primary human alveolar cells, FIG. 10) | IC50 [8] | IC50 ([2]; Severe acute respiratory syndrome coronavirus 2, Vero C1008, read-out: 50% inhibition concentration (IC50)) | Virus titer (reduced in) ([7]; 72 h, 25 μM, vehicle 4.5 log PFU/mL) | Virus titer ([7]; 72 h, 50 μM, vehicle 4.5 log PFU/mL)
1 | CCN(CCO)CCCC(C)Nc1ccnc2cc(Cl)ccc12 (centres unmarked) [Hydroxychloroquine, reference compound] | > 100 µM | 1.71 µg/mL |  |  |  |  |  |  |  |  |  |  | 
2 | COc1cc(O)c(C(=O)[C@@H]2[C@H](CC=C(C)C)C(C)=CC[C@H]2c2ccccc2)c(O)c1 [Panduratin A] |  |  | 43.5 µM | 14.7 µM | 0.81 µM | absolutely suppressed | significantly lower than that of Hydroxychloroquine | 3 log PFU/mL | reduced virus titers in a dose-dependent manner | 5.3 µM |  |  | 
3 | COc1cc(O)c2c(c1)O[C@H](c1ccccc1)CC2=O [Pinostrobin] | > 100 µM |  |  |  |  |  |  |  |  |  | 0.44 µM | 3 log PFU/mL | 2.0 log PFU/mL

Source: patent publication US20230201158A1, “PHARMACEUTICAL COMPOSITION CAPABLE OF INHIBITING REPLICATION OF CORONAVIRUS” (MAHIDOL UNIVERSITY, priority 2020, published 2023)
